Assay results taken from publication doi:10.1101/2024.07.10.602890, “H105A peptide eye drops promote photoreceptor survival in murine and human models of retinal degeneration” (bioRxiv, 2024).
Ends that are not written are not given here.

How the values were obtained:
[1] = system: rd10 and rd10/Serpinf1−/− mice; test: In vivo photoreceptor cell death (PS externalization) by PSVue-550 fluorescence fundoscopy; set-up: species or system mouse
Experimental: Fig. 2: Effect of PEDF peptide eye drops on protection against photoreceptor cell death in rd10 and rd10/Serpinf1^−/− mice (A) Illustration of the experimental timeline of peptide application. Eye drops containing 5 μl of 17-mer, H105A, or R99A peptides in HBSS were administered daily to eyes of rd10 and rd10/Serpinf1^−/− mice from P15 to P20. Vehicle (HBSS) was applied in contralateral eyes. At P20, PSVue® was applied via eye drops, and fluorescence fundoscopy was conducted at P21 to assess photoreceptor cell death. RE and LE refer to the right and left eyes, respectively. (B) Fluorescence fundoscopy micrographs. Representative fluorescence fundoscopy images of retinas from mice treated as in Panel A with eyedrops of 1 mg/ml of each peptide. Quantification of fluorescence intensity was performed using ImageJ, with average intensity values corrected for background fluorescence from eyes that had not received PSVue or peptides. […] Statistical significance was determined by unpaired t-test (****p < 0.0001). […] Representative fluorescence fundoscopy micrographs showing retinas treated with varying concentrations of 17-mer and H105A peptides (0.0 mg/ml to 1.0 mg/ml) in rd10 and rd10/SerpinfT^−/− mice. Fluorescence intensity was quantified and analyzed using Sigmoidal interpolation in GraphPad. […]

[2] = system: rd10 and rd10/Serpinf1−/− mice; test: Retinal histology (H&E), OS length and ONL thickness spider plots after peptide eye drops; assay type: in vivo, mouse; details: daily eye drops 1 mg/ml; rd10 and rd10/Serpinf1−/− mice; P21
Experimental: Fig. 4: Effect of eyedrops of 17-mer and H105A peptides on photoreceptor morphology of rd10 and rd10/Serpinf1−/− mice (A and B) Histological Evaluation. Representative microphotographs of retina sections from rd10 (A) and rd10/Serpinf1−/− (B) mice treated with 17-mer, H105A, or R99A peptides at 1 mg/ml, or with vehicle (HBSS), compared to wild type C57Bl/6J mice. Sections were stained with hematoxylin and eosin. Spider Plot illustrate the thickness of the outer nuclear layer (ONL) in rd10 (C) and rd10/Serpinf1−/− (D) mice. Five retinas per group were analyzed and each data point represents the average ± SEM per location relative to the optic nerve (ON), analyzed using One-way ANOVA. Statistics for comparisons between H105A and vehicle is indicated by #p < 0.05, #p < 0.05, ##p < 0.01, ###p < 0.001). Statistics for comparisons between H105A and 17-mer is indicated by *p < 0.05. Scale bar = 50 μm.
Both eyes were oriented before enucleation to allow sectioning along the dorsal/ventral axis. Enucleated eyes from rd10 and rd10 × Serpinf1^−/− mice were incised in the cornea and fixed in 2.5% glutaraldehyde for 20 min and then in 10% neutral buffered formalin at 4°C for at least 48 h, followed by paraffin embedding, sectioning, and staining with either H&E or immunofluorescence procedures, as previously described ([28]). For fluorescence microscopy, antibodies, and 0.1 μg/ml DAPI were used to immunostain and nuclei counterstain the sections, respectively. Antibodies used in the study are in Table S3. Images were acquired using a ZEIS 700 confocal microscope. Fluorescence intensity was quantified using ImageJ as previously described ([14], [26]).
To generate spider plots, the ONL thickness was measured from images acquired with light microscopy of the retina sections stained with H&E or images of retina sections stained with DAPI with a dorsal-ventral orientation. The ONL thickness in the entire retina sections was measured at 5 different positions from both sides of the optic nerve (ON) using ImageJ, as described before ([28]). Alternatively, for DAPI stained images, a customed macro implemented in ImageJ was used to select only the ONL.
(§1) Figure S2. Effects of extending the timeline or administering eye drops of 17-mer[H105A] peptide every other day in rd10 mic e.
Eye drops of H105A peptide solution were administered to r d1 0 mice either daily (Fig. S2A) or every other day (Fi g. S 2D). A total of 5 µl of a solution containing H105A peptide at 1 mg/ml in HBSS were applied as eye drops. The vehicle HBSS was added as eye drops in the contralateral eyes. […]
ONL thickness in r d10 mice compared to vehicle was also observed (Fi g. S 2E), with an improvement in a- […]
efficacy of peptide H105A eye drops either daily or every other day in an extended timeline to stabilize photoreceptor morphology and light response function loss in r d10 mice, however, these were less efficacious than daily H105A peptide eye drops.
(A) Scheme showing a timeline of peptide administration via daily eye drops of H105A peptide to r d10 mice between P15 and P2 4. […]
(B) Representative microphotographs of retinal cross sections of r d1 0 treated as in Fig. S2A and stained with hematoxylin and eosin are shown. […]
(D) Scheme showing a timeline of peptide administration via eye drops of H105A peptide to rd10 mice starting at P15 every other day until P23. Assays were at P25.
(E) Representative microphotographs of retinal cross sections of r d1 0 treated as in Fig. S2D and stained […]
average ± SD per location relative to the ON per genotype by unpaired t-test. *p < 0.05, […]
(F) ERG of r d1 0 mice at P25 and treated as in Fig. S2D were performed in response to a STR. […]

[3] = system: rd10 and rd10/Serpinf1−/− mice; test: Electroretinography (ERG) a-wave and b-wave after peptide eye drops; assay type: in vivo, mouse; details: rd10 mice; daily eye drops of AlexaFl488-labelled peptide P15-P20, ERG at P21; n = 3 per condition
Text: Fig. 5: Effect of daily eyedrops of PEDF peptides on ERG a-wave and b-wave retinal function (A and B) Representative ERG waveforms for rd10 (A) and rd10/Serpinf1^−/− (B) mice at P21 in response to a light flash (1 cd.s/m^2). Amplitude (y-axis) is plotted against time in milliseconds (ms, x-axis). Treatments are indicated to the right of each plot and are color coded, with control wild type C57Bl/6J mice without peptide treatment shown in blue. A-wave and b-wave are indicated by arrows. (C and D) Photoreceptor a-wave amplitudes. Averages of photoreceptor a-wave amplitudes for rd10 (C) and rd10/Serpinf1^−/− (D) mice as a function of light intensity (cd/s.m^2, x-axis). Responses of animals treated with 17-mer are shown in green, H105A in black, and vehicle (HBSS) in red. Wildtype responses are shown in blue. (E and F) Bipolar cell b-wave amplitudes. Averages of bipolar cell b-wave amplitudes for rd10 (E) and rd10/Serpinf1^−/− (F) mice as a function of light intensity (cd/s.m^2, x-axis), with treatments indicated as in panels (C) and (D). The number of mice evaluated for the data shown in Panels C-F were n = 8 for each rd10, rd10/Serpinf1^−/− and wild type. Each data point represents the average ± SD of each genotype, analyzed by unpaired t-test. Statistical significance between H105A and vehicle is indicated by ##p < 0.01, ###p < 0.001, ####p < 0.0001, and between H105A and 17-mer by **p < 0.01, ***p < 0.001, ****p < 0.0001.
Electroretinogram (ERG) for rd10 and rd10/Serpinf1^−/− mice were recorded in both eyes of each animal using an Espion E2 system with ColorDome (Diagnosys LLC) with a heated surface and mice were dark-adapted overnight as previously described ([29]). Mice were placed on the heated surface and electrodes were placed in the mouth and a subdermal platinum needle electrode was placed in the back of the mouse to serve as ground. Responses were elicited with increasing light impulses with intensity from 0.0001 to 10 cd-seconds per meter squared (cd.s/m^2). Amplitudes for a-wave were measured from stimulus to the trough of the a-wave and b-wave amplitudes were measured from a-wave to b-wave trough or peak. The values from the a and b waves for both eyes were exported to Microsoft Excel to obtained amplitude values for each mouse.
as §1
Eye drops of H105A peptide solution were administered to r d1 0 mice either daily (Fig. S2A) or every other day (Fi g. S 2D). A total of 5 µl of a solution containing H105A peptide at 1 mg/ml in HBSS were applied as eye drops. The vehicle HBSS was added as eye drops in the contralateral eyes. When eye […]
intensity light at P25 (Fig. S2C). When eye drops of H105A were added every other day, a rescue in the ONL thickness in r d10 mice compared to vehicle was also observed (Fi g. S 2E), with an improvement in a- […]
efficacy of peptide H105A eye drops either daily or every other day in an extended timeline to stabilize photoreceptor morphology and light response function loss in r d10 mice, however, these were less efficacious than daily H105A peptide eye drops. […]
(C) ERG of r d1 0 mice at P25 and treated as in Fi g. […] For ERG data shown, the number of mice evaluated were n =5 for rd10 and each data point corresponds to the average ± SD of each genotype by unpaired t-test. *p < 0.05, **p < 0.01, * ** p < 0 .001 , ****p < 0.0001. […]

QATESIIHRALYYDLIS [R99A]
PS externalization (PSVue-550 fundi fluorescence) vs vehicle (HBSS) eye drops ([1]; daily eye drops 5 μl of 1 mg/ml, P15 to P20, fundoscopy at P21, 5 eyes per condition): no significant efficacy
outer nuclear layer (ONL) thickness vs vehicle-treated or untreated eyes [2]: had no effect
photoreceptor outer segment (OS) length vs vehicle-treated or untreated eyes [2]: had no effect

AlexaFl-QRTESIIARALYYDLIS-COOH [AlexaFl-488-H105A, H105A peptide conjugated to Alexa Fluor 488 dye]
neuroprotective activity of labelled peptides as assessed by ERG [3]: exhibited neuroprotective activity

SLGAEQRTESIIHRALYYDLISSPDIHGT [29-mer]
photoreceptor cell death (PSVue 550 fluorescence fundoscopy) relative to vehicle ([1]; daily eye drops 5 μl of 1 mg/ml in HBSS from P15, P21, n = 3 retinas per genotype): no rescue in photoreceptor cell death

AlexaFl-QRTESIIHRALYYDLIS-COOH [AlexaFl-488-17-mer, 17-mer conjugated to Alexa Fluor 488 dye]
neuroprotective activity of labelled peptides as assessed by ERG [3]: exhibited neuroprotective activity
